For one experiment, the target named is T1, CDK9/CycT1 (Homo sapiens, UniProt P50750).
T1 construct: Recombinant full-length His-tagged human CDK9 and CycT1; His; purchased Invitrogen PV4131; host or cells: insect cells
As to the kind of experiment: CDK9/CycT1 kinase assay (TR-FRET, Method 1a). The following applies: for IC50: Method 1a, 10 μM ATP; for Selectivity CDK9 over CDK2: IC50 (CDK2)/IC50 (CDK9): Methods 1a and 2a, minimal values where CDK9 IC50 is at the assay limit. It counts as biochemical. From the text: 1a. CDK9/CycT1 Kinase Assay:
CDK9/CycT1-inhibitory activity of compounds of the present invention was quantified employing the CDK9/CycT1 TR-FRET assay as described in the following paragraphs:
Recombinant full-length His-tagged human CDK9 and CycT1, expressed in insect cells and purified by Ni-NTA affinity chromatography, were purchased from Invitrogen (Cat. No PV4131). As substrate for the kinase reaction biotinylated peptide biotin-Ttds-YISPLKSPYKISEG (C-terminus in amid form) was used which can be purchased e.g. from the company JERINI Peptide Technologies (Berlin, Germany). For the assay 50 nl of a 100 fold concentrated solution of the test compound in DMSO was pipetted into a black low volume 384 well microtiter plate (Greiner Bio-One, Frickenhausen, Germany), 2 μl of a solution of CDK9/CycT1 in aqueous assay buffer [50 mM Tris/HCl pH 8.0, 10 mM MgCl2, 1.0 mM dithiothreitol, 0.1 mM sodium ortho-vanadate, 0.01% (v/v) Nonidet-P40 (Sigma)] were added and the mixture was incubated for 15 min at 22° C. to allow pre-binding of the test compounds to the enzyme before the start of the kinase reaction. […] The concentration of CDK9/CycT1 was adjusted depending of the activity of the enzyme lot and was chosen appropriate to have the assay in the linear range, typical concentrations were in the range of 1 μg/mL. The reaction was stopped by the addition of 5 μl of a solution of TR-FRET detection reagents (0.2 μM streptavidine-XL665 [Cisbio Bioassays, Codolet, France] and 1 nM anti-RB(pSer807/pSer811)-antibody from BD Pharmingen [#558389] and 1.2 nM LANCE EU-W1024 labeled anti-mouse IgG antibody [Perkin-Elmer, product no. AD0077]) in an aqueous EDTA-solution (100 mM EDTA, 0.2% (w/v) bovine serum albumin in 100 mM HEPES pH 7.5).
The resulting mixture was incubated 1 h at 22° C. to allow the formation of complex between the phosphorylated biotinylated peptide and the detection reagents. Subsequently the amount of phosphorylated substrate was evaluated by measurement of the resonance energy transfer from the Eu-chelate to the streptavidine-XL. Therefore, the fluorescence emissions at 620 nm and 665 nm after excitation at 350 nm was measured in a HTRF reader, e.g. a Rubystar (BMG Labtechnologies, Offenburg, Germany) or a Viewlux (Perkin-Elmer). The ratio of the emissions at 665 nm and at […] was taken as the measure for the amount of phosphorylated substrate. The data were normalised (enzyme reaction without inhibitor=0% inhibition, all other assay components but no enzyme=100% inhibition).
A general note: TR-FRET usually uses a lanthanide donor and a delayed reading to cut background.

Another experiment deals with DU145 cells. As to the kind of experiment: Proliferation assay DU145. It counts as cell-based, human. The following applies: Homo sapiens, DU-145, 96 h, 4 days, crystal violet; read-out: Inhibition of DU145 cell proliferation IC50. The procedure:
Cultivated tumour cells (HeLa, human cervical tumour cells, ATCC CCL-2; NCI-H460, human non-small cell lung carcinoma cells, ATCC HTB-177; A2780, human ovarian carcinoma cells, ECACC #93112519; DU 145, hormone-independent human prostate carcinoma cells, ATCC HTB-81; HeLa-MaTu-ADR, multidrug-resistant human cervical carcinoma cells, EPO-GmbH Berlin; Caco-2, human colorectal carcinoma cells, ATCC HTB-37; B16F10, mouse melanoma cells, ATCC CRL-6475) were plated at a density of 5,000 cells/well (DU145, HeLa-MaTu-ADR), 3,000 cells/well (NCI-H460, HeLa), 2,500 cells/well (A2780), 1,500 cells/well (Caco-2), or 1,000 cells/well (B16F10) in a 96-well multititer plate in 200 μL of their respective growth medium supplemented 10% fetal calf serum. After 24 hours, the cells of one plate (zero-point plate) were stained with crystal violet (see below), while the medium of the other plates was replaced by fresh culture medium (200 μl), to which the test substances were added in various concentrations (0 μM, as well as in the range of 0.001-10 μM). The cells were incubated for 4 days in the presence of test substances. Cell proliferation was determined by staining the cells with crystal violet: the cells were fixed by adding 20 μl/measuring point of an 11% glutaric aldehyde solution for 15 minutes at room temperature. After three washing cycles of the fixed cells with water, the plates were dried at room temperature. The cells were stained by adding 100 μl/measuring point of a 0.1% crystal violet solution (pH 3.0). After three washing cycles of the stained cells with water, the plates were dried at room temperature. The dye was dissolved by adding 100 μl/measuring point of a 10% acetic acid solution. The extinction was determined by photometry at a wavelength of 595 nm. The change of cell number, in percent, was calculated by normalization of the measured values to the extinction values of the zero-point plate (=0%) and the extinction of the untreated (0 μm) cells (=100%). The IC50 values (inhibitory concentration at 50% of maximal effect) were determined by means of a 4 parameter fit. Non-adherent MOLM-13 human acute myeloid leukemia cells (DSMZ ACC 554) were seeded at a density of 5,000 cells/well in a 96-well multititer plate in 100 μL of growth medium supplemented 10% fetal calf serum. After 24 hours, cell viability of one plate (zero-point plate) was determined with the Cell Titre-Glo Luminescent Cell Viability Assay (Promega), while 50 μL of test compound containing medium was added to the wells of the other plates (final concentrations in the range of 0.001-1 μM and DMSO controls). Cell viability was assessed after 72-hour exposure with the Cell Titre-Glo Luminescent Cell Viability Assay (Promega). IC50 values (inhibitory concentration at 50% of maximal effect) were determined by means of a 4 parameter fit on measurement data which were normalized to vehicle (DMSO) treated cells (=100%) and measurement readings taken immediately before compound exposure (=0%).

Structures are written as SMILES.

T1 sequence (P50750 whole entry): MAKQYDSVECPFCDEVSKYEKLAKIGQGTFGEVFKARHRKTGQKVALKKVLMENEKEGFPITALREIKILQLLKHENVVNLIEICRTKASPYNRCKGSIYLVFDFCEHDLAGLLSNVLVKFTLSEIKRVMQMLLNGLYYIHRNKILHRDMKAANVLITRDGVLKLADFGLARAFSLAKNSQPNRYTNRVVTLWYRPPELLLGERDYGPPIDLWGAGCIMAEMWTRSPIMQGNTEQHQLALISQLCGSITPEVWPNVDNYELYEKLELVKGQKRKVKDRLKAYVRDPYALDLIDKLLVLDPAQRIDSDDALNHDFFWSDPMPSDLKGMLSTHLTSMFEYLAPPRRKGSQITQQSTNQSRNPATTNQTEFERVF
T1 sequence (O60563 whole entry partner): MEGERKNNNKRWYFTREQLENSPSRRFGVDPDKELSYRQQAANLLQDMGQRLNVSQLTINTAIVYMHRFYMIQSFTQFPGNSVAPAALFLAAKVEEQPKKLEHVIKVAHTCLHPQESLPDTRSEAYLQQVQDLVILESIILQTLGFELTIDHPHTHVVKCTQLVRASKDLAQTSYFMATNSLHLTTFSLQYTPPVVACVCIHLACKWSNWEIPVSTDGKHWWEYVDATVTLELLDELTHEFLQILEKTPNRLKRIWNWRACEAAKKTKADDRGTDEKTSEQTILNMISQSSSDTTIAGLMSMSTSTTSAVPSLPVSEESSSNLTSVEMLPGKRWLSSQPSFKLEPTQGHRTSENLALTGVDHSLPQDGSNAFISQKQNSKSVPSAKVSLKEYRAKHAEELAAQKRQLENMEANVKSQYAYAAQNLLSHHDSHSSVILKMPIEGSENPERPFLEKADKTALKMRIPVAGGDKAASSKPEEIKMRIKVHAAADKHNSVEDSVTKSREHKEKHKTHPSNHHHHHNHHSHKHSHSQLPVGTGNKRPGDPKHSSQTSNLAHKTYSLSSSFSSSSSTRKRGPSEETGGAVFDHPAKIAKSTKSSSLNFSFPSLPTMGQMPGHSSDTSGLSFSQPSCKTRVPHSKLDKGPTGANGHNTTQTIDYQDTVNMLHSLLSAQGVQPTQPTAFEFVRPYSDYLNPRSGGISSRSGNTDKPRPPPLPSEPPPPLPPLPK

Consider `CS(=N)(=O)Cc1cc2cc(c1)OCCCCOc1cc(F)ccc1-c1nc(ncc1F)N2` (racemic) [Example 1, (rac)-16,20-Difluoro-9-[(S-methylsulfonimidoyl)methyl]-2,3,4,5-tetrahydro-12H-13,17-(azeno)-11,7-(metheno)-1,6,12,14-benzodioxadiazacyclononadecine], for which the values for the IC50 against CDK9/CycT1 and in the experiment with DU145 cells were 2.9 nM and 10 nM, respectively. Besides, the “Selectivity CDK9 over CDK2: IC50 (CDK2)/IC50 (CDK9)” value (“Selectivity CDK9 over CDK2: IC50” for short) at CDK9/CycT1 came to 7.4.
On to `C[S+]([O-])Cc1cc2nc(c1)OCCCOc1cc(F)ccc1-c1cc(ncc1F)N2` (racemic) [Example 4, (rac)-15,19-Difluoro-8-[(methylsulfinyl)methyl]-3,4-dihydro-2H,11H-10,6-(azeno)-12,16-(metheno)-1,5,11,13-benzodioxadiazacyclooctadecine], for which, at CDK9/CycT1, the IC50 amounted to 2.8 nM and the “Selectivity CDK9 over CDK2: IC50” value is listed as 1.7. In the experiment with DU145 cells, the IC50 is 11 nM.
On to `CS(=N)(=O)Cc1cc2nc(c1)OCCCOc1cc(F)ccc1-c1cc(ncc1F)N2` (racemic) [Example 5, (rac)-15,19-Difluoro-8-[(S-methylsulfonimidoyl)methyl]-3,4-dihydro-2H,11H-10,6-(azeno)-12,16-(metheno)-1,5,11,13-benzodioxadiazacyclooctadecine], for which, on CDK9/CycT1, the IC50 came out at 3 nM and the “Selectivity CDK9 over CDK2: IC50” value is on record as 0.65. Further, the IC50 in the experiment on DU145 cells came out at 4 nM.
Turning to `C[S+]([O-])Cc1cc2nc(c1)OCCOc1cc(F)ccc1-c1cc(ncc1F)N2` (racemic) [Example 10, (rac)-14,18-difluoro-7-[(methylsulfinyl)methyl]-2,3-dihydro-10H-9,5-(azeno)-11,15-(metheno)-1,4,10,12-benzodioxadiazacycloheptadecine], the IC50 against CDK9/CycT1 was found to be 7.3 nM; in the experiment on DU145 cells it was 324 nM. Also, at CDK9/CycT1, the “Selectivity CDK9 over CDK2: IC50” value was 56.5.
Take `CS(=N)(=O)Cc1cc2nc(c1)OCCOc1cc(F)ccc1-c1cc(ncc1F)N2` (racemic) [Example 11, (rac)-14,18-difluoro-7-[(S-methylsulfonimidoyl)methyl]-2,3-dihydro-10H-9,5-(azeno)-11,15-(metheno)-1,4,10,12-benzodioxadiazacycloheptadecine]: at CDK9/CycT1, the IC50 is 2.5 nM and the “Selectivity CDK9 over CDK2: IC50” value is 72.6. Also, the IC50 with DU145 cells was 159 nM.
Turning to `C[S+]([O-])Cc1cc2nc(c1)OCCCCOc1cc(F)ccc1-c1cc(ncc1F)N2` (racemic) [Example 13, (rac)-16,20-difluoro-9-[(methylsulfinyl)methyl]-2,3,4,5-tetrahydro-12H-11,7-(azeno)-13,17-(metheno)-1,6,12,14-benzodioxadiazacyclononadecine], at CDK9/CycT1, the IC50 was 4 nM and the “Selectivity CDK9 over CDK2: IC50” value worked out at 4.2. For the same molecule, in the experiment on DU145 cells, the IC50 is 30 nM.
Turning to `CS(=N)(=O)Cc1cc2nc(c1)OCCCCOc1cc(F)ccc1-c1cc(ncc1F)N2` (racemic) [Example 14, (rac)-16,20-difluoro-9-[(S-methylsulfonimidoyl)methyl]-2,3,4,5-tetrahydro-12H-11,7-(azeno)-13,17-(metheno)-1,6,12,14-benzodioxadiazacyclononadecine], on CDK9/CycT1, the IC50 was found to be 4.8 nM and the “Selectivity CDK9 over CDK2: IC50” value is 4.1. Also, in the experiment with DU145 cells, the IC50 came to 16 nM.
On the same counts, the results for `CS(=N)(=O)Cc1cc2cc(c1)OCCCOc1cc(F)ccc1-c1nc(ncc1F)N2` (racemic) [Example 15, (rac)-15,19-difluoro-8-[(S-methylsulfonimidoyl)methyl]-3,4-dihydro-2H,11H-12,16-(azeno)-10,6-(metheno)-1,5,11,13-benzodioxadiazacyclooctadecine] are 3.8 nM, 6.8 and 17 nM.
For `CS(=O)(Cc1cc2cc(c1)OCCCOc1cc(F)ccc1-c1nc(ncc1F)N2)=NC(=O)C(F)(F)F` (racemic) [Example 16, (rac)-N-[{[15,19-difluoro-3,4-dihydro-2H,11H-12,16-(azeno)-10,6-(metheno)-1,5,11,13-benzodioxadiazacyclooctadecin-8-yl]methyl}(methyl)oxido-λ^6-sulfanylidene]-2,2,2-trifluoroacetamide], on CDK9/CycT1, the IC50 worked out at 3.9 nM and the “Selectivity CDK9 over CDK2: IC50” value was found to be 14.8. For the same molecule, in the experiment with DU145 cells, the IC50 came out at 17 nM.
Consider `CCNC(=O)N=S(C)(=O)Cc1cc2nc(c1)OCCCOc1cc(F)ccc1-c1cc(ncc1F)N2` (racemic) [Example 17, (rac)-1-[{[15,19-difluoro-3,4-dihydro-2H,11H-10,6-(azeno)-12,16-(metheno)-1,5,11,13-benzodioxadiazacyclooctadecin-8-yl]methyl}(methyl)oxido-λ^6-sulfanylidene]-3-ethylurea], for which the IC50 at CDK9/CycT1 worked out at 4.4 nM; with DU145 cells it was 36 nM. For the same molecule, the “Selectivity CDK9 over CDK2: IC50” value at CDK9/CycT1 is given as 1.3.
On the same counts, the results for `CC(=O)N=S(C)(=O)Cc1cc2nc(c1)OCCCOc1cc(F)ccc1-c1cc(ncc1F)N2` (racemic) [Example 18, (rac)-N-[{[15,19-difluoro-3,4-dihydro-2H,11H-10,6-(azeno)-12,16-(metheno)-1,5,11,13-benzodioxadiazacyclooctadecin-8-yl]methyl}(methyl)oxido-λ^6-sulfanylidene]acetamide] are 4.9 nM, 26 nM and 1.7.
In the case of `CN=S(C)(=O)Cc1cc2nc(c1)OCCCOc1cc(F)ccc1-c1cc(ncc1F)N2` (racemic) [Example 19, (rac)-8-[(N,S-dimethylsulfonimidoyl)methyl]-15,19-difluoro-3,4-dihydro-2H,11H-10,6-(azeno)-12,16-(metheno)-1,5,11,13-benzodioxadiazacyclooctadecine], the IC50 at CDK9/CycT1 is 5.3 nM; with DU145 cells, 78 nM. Besides, the “Selectivity CDK9 over CDK2: IC50” value on CDK9/CycT1 came to 2.9.
As to `CSCc1cc2nc(c1)OCCOc1cc(F)ccc1-c1cc(ncc1F)N2` [Example 9, 14,18-Difluoro-7-[(methylsulfanyl)methyl]-2,3-dihydro-10H-9,5-(azeno)-11,15-(metheno)-1,4,10,12-benzodioxadiazacycloheptadecine], at CDK9/CycT1, the IC50 was determined as 18 nM and the “Selectivity CDK9 over CDK2: IC50” value is 963.7.
